According to patent publication US5488051A, “Substituted 5,6-dihydro-5-oxo-1,4-dithiino-(2,3-d)-pyridazine-2,3-dicarbonitriles, compositions containing them and their use as antimicrobials” (The Dow Chemical Company, priority 1994, dated 1996):
≈ marks a conversion by molar mass, not a printed value. Where two headings read alike, the source gives them in different places.

Key:
[1] = test system: Saccharomyces cerevisiae; experiment: MIC for Saccharomyces cerevisiae, malt yeast agar; type: cell-based, Saccharomyces cerevisiae ATCC 4105; conditions: malt yeast agar, 30° C., 48 hours for yeast, read-out: Minimum Inhibitory Concentration (MIC), Sc
Method in brief: (§1)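 Agar dilution on malt yeast agar with compound (from 1% acetone/water solution) at final 0, 1.0, 2.5, 5, 10, 25, 50, 100, 250, 500 ppm. Plates inoculated by replicator with saline suspensions (1:9 diluted) of 7-day cultures; incubated at 30 °C, read at 48 h for yeast and 72 h for fungi.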

[2] = test system: Staphylococcus aureus (Sa); experiment: MIC for Staphylococcus aureus, nutrient agar; type: cell-based, Staphylococcus aureus ATCC 6538; conditions: 30° C., 48 hours, read-out: Minimum Inhibitory Concentration (MIC), Sa
Method in brief: (§2)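 Test compound is mixed into cooled (48° C) nutrient agar at fixed ppm steps up to 500 ppm, at neutral and alkaline pH. After 24 h drying, plates receive replicator spots of bacterial suspension at 10^8 CFU/mL and are incubated 48 h at 30° C before scoring for growth.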

[3] = test system: Aureobasidium pullulan (Ap); experiment: MIC for Aureobasidium pullulan, malt yeast agar; type: cell-based, Aureobasidium pullulan ATCC 16622; conditions: malt yeast agar; 30° C.; 48 hours for yeast and 72 hours for fungi; read-out: Minimum Inhibitory Concentration (MIC), Ap
Method in brief: as §1

[4] = test system: Enterobacter aerogenes (Ea); experiment: MIC for Enterobacter aerogenes, nutrient agar; type: cell-based, Enterobacter aerogenes ATCC 13048; conditions: Klebsiella aerogenes, nutrient agar, 30° C., 48 hours, read-out: Minimum Inhibitory Concentration (MIC), Ea
Method in brief: as §2

[5] = test system: Bacillus subtilis (Bs); experiment: MIC for Bacillus subtilis, nutrient agar; type: cell-based, Bacillus subtilis ATCC 8473; conditions: 30° C., 48 hours, read-out: Minimum Inhibitory Concentration (MIC), Bs
Method in brief: as §2

[6] = test system: Salmonella choleraesuis; experiment: MIC for Salmonella choleraesuis, nutrient agar; type: cell-based, Salmonella choleraesuis ATCC 10708; conditions: Salmonella enterica, 30° C., 48 hours, read-out: Minimum Inhibitory Concentration (MIC), SC
Method in brief: as §2

[7] = test system: Pseudomonas aeruginosa (PRD-10); experiment: MIC for Pseudomonas aeruginosa PRD-10, nutrient agar; type: cell-based, Pseudomonas aeruginosa ATCC 15442; conditions: 30° C., 48 hours, read-out: Minimum Inhibitory Concentration (MIC), PRD
Method in brief: as §2

[8] = test system: Candida albicans (Ca); experiment: MIC for Candida albicans, malt yeast agar; type: cell-based, Candida albicans ATCC 10231; conditions: malt yeast agar; 30° C., 48 hours for yeast; read-out: Minimum Inhibitory Concentration (MIC), Ca
Method in brief: as §1

[9] = test system: Aspergillus niger (An); experiment: MIC for Aspergillus niger, malt yeast agar; type: cell-based, Aspergillus niger ATCC 16404; conditions: malt yeast agar; 30° C., 72 hours for fungi; read-out: Minimum Inhibitory Concentration (MIC), An
Method in brief: as §1

[10] = test system: Escherichia coli (Ec); experiment: MIC for Escherichia coli, nutrient agar; type: cell-based, Escherichia coli ATCC 11229; conditions: 30° C., 48 hours, read-out: Minimum Inhibitory Concentration (MIC), Ec
Method in brief: as §2

[11] = test system: Proteus vulgaris (Pv); experiment: MIC for Proteus vulgaris, nutrient agar; type: cell-based, Proteus vulgaris ATCC 881; conditions: 30° C., 48 hours, read-out: Minimum Inhibitory Concentration (MIC), Pv
Method in brief: as §2

[12] = test system: Trichoderma viride (Tv); experiment: MIC for Trichoderma viride, malt yeast agar; type: cell-based, Trichoderma viride ATCC 8678; conditions: malt yeast agar; 30° C., 72 hours for fungi; read-out: Minimum Inhibitory Concentration (MIC), Tv
Method in brief: as §1

[13] = test system: Penicillium chrysogenum (Pc); experiment: MIC for Penicillium chrysogenum, malt yeast agar; type: cell-based, Penicillium chrysogenum ATCC 9480; conditions: malt yeast agar; 30° C., 72 hours for fungi; read-out: Minimum Inhibitory Concentration (MIC), PC
Method in brief: as §1

Molecule `Cc1ccc(-n2ncc3c(c2=O)SC(C#N)=C(C#N)S3)cc1` [B, 5,6-dihydro-6-(4-methylphenyl)-5-oxo-1,4-dithiino-(2,3-d)-pyridazine-2,3-dicarbonitrile] has an MIC [1] of under 10 µg/mL, an MIC ([2]; pH 6.8, nutrient agar) of under 10 µg/mL and an MIC ([2]; pH 8.2, nutrient agar) of 25 µg/mL (≈ 77.1 µM). For the same molecule, the MIC [3] was under 10 µg/mL, the MIC ([4]; pH 6.8) was over 500 µg/mL and the MIC ([4]; pH 8.2) was over 500 µg/mL. The MIC ([5]; pH 6.8, nutrient agar) was under 10 µg/mL, the MIC ([5]; pH 8.2, nutrient agar) was 25 µg/mL (≈ 77.1 µM) and the MIC ([6]; pH 6.8, nutrient agar) was over 500 µg/mL. The MIC ([6]; pH 8.2, nutrient agar) was over 500 µg/mL, the MIC ([7]; pH 6.8, nutrient agar) was over 500 µg/mL and the MIC ([7]; pH 8.2, nutrient agar) was over 500 µg/mL. It also gave an MIC [8] of under 10 µg/mL, an MIC [9] of 25 µg/mL (≈ 77.1 µM) and an MIC ([10]; pH 6.8, nutrient agar) of 50 µg/mL (≈ 154 µM). The MIC ([10]; pH 8.2, nutrient agar) was over 500 µg/mL, the MIC ([11]; pH 6.8, nutrient agar) was 500 µg/mL (≈ 1540 µM) and the MIC ([11]; pH 8.2, nutrient agar) was over 500 µg/mL. The MIC [12] was 25 µg/mL (≈ 77.1 µM) and the MIC [13] was 25 µg/mL (≈ 77.1 µM).

`N#CC1=C(C#N)Sc2c(cnn(-c3ccc(Br)cc3)c2=O)S1` [C, 5,6-dihydro-6-(4-bromophenyl)-5-oxo-1,4-dithiino-(2,3-d)-pyridazine-2,3-dicarbonitrile] showed an MIC [1] of 10 µg/mL (≈ 25.7 µM), an MIC ([2]; pH 6.8, nutrient agar) of over 500 µg/mL and an MIC ([2]; pH 8.2, nutrient agar) of over 500 µg/mL. The MIC [3] was 10 µg/mL (≈ 25.7 µM), the MIC ([4]; pH 6.8) was over 500 µg/mL and the MIC ([4]; pH 8.2) was over 500 µg/mL. For the same molecule, the MIC ([5]; pH 6.8, nutrient agar) was under 10 µg/mL, the MIC ([5]; pH 8.2, nutrient agar) was 100 µg/mL (≈ 257 µM) and the MIC ([6]; pH 6.8, nutrient agar) was 100 µg/mL (≈ 257 µM). For the same molecule, the MIC ([6]; pH 8.2, nutrient agar) was over 500 µg/mL, the MIC ([7]; pH 6.8, nutrient agar) was over 500 µg/mL and the MIC ([7]; pH 8.2, nutrient agar) was over 500 µg/mL. It also gave an MIC [8] of 10 µg/mL (≈ 25.7 µM), an MIC [9] of 10 µg/mL (≈ 25.7 µM) and an MIC ([10]; pH 6.8, nutrient agar) of 100 µg/mL (≈ 257 µM). For the same molecule, the MIC ([10]; pH 8.2, nutrient agar) was over 500 µg/mL, the MIC ([11]; pH 6.8, nutrient agar) was 250 µg/mL (≈ 642 µM) and the MIC ([11]; pH 8.2, nutrient agar) was over 500 µg/mL. For the same molecule, the MIC [12] was 25 µg/mL (≈ 64.2 µM) and the MIC [13] was 25 µg/mL (≈ 64.2 µM).
